We go through three compounds from patent US20130317116A1, “EXTERNAL SKIN PREPARATION” (JX NIPPON OIL & ENERGY CORPORATION, priority 2011, published 2013).

The test in a line: Singlet oxygen quenching activity of carotenoids by the ESR method. Type of test: physicochemical. Conditions: for singlet oxygen quenching activity compared with astaxanthin: ESR method, Table 3 and FIG. 1; for ESR signal intensity / ESR signal intensity Mean: carotenoid 2.5 mM, lower intensity = more effective quenching; for ESR signal intensity: hematoporphyrin + UVA, TMPD spin trap; for ESR signal intensity Mean: mean of three independent experiments, control 3.20. From the text:
Crosslinking of dermal collagen by singlet oxygen is one reason for wrinkle formation caused by photoaging (Non-Patent Document 1). If the external skin preparation according to the present invention can quench singlet oxygen, specifically, changes in collagen as observed on the photoaged skin can be inhibited, and anti-aging effects can be exerted. Accordingly, pharmacological evaluation of the external skin preparation according to the present invention in respect of improvement and prevention of wrinkle formation can be performed using the singlet oxygen quenching capacity as the indicator. For example, pharmacological evaluation of the external skin preparation according to the present invention can be performed by determining whether or not the external skin preparation according to the present invention has sufficient singlet oxygen quenching capacity by the electron spin resonance (ESR) method that is employed for evaluation of the singlet oxygen quenching activity.
Evaluation was carried out by the ESR method using an ESR apparatus (JEOLJES-FR30, JEOL Ltd.). The method of evaluation is described below.
50 μl of 250 mM spin trap agent, 50 μl of an aqueous solution of 2,2,6,6-tetramethyl-4-piperidione (TMPD), and 50 μl of an acetone solution of 10 mM carotenoid were added to 50 μl of 100 mM phosphate buffer (pH 7.4), these components were thoroughly mixed, 50 μl of an aqueous solution of 0.25 mM hematoporphyrin was added thereto as a singlet oxygen generator, and the resultant was irradiated with ultraviolet A (UVA) to generate singlet oxygen.
Subsequently, ESR signals based on stable nitroxyl radicals (4-oxo-TEMPO) generated upon the reaction between singlet oxygen and TMPD in the reaction solution were measured.
No antioxidant was applied to a control group. The results are the mean and the standard deviations of three independent experiments.

The mark [1] stands for this setting: first of three independent experiments.
The mark [2] stands for this setting: second value column of three independent experiments.
Setting [3] is: third value column of three independent experiments.

Take `CC1=C(/C=C/C(C)=C/C=C/C(C)=C/C=C/C=C(C)/C=C/C=C(C)/C=C/C2=C(C)C(=O)[C@@H](O)CC2(C)C)C(C)(C)CCC1=O` [Adonirubin, adonirubin]: the “singlet oxygen quenching activity compared with astaxanthin” value is reported as “significantly higher than that of astaxanthin” and the “ESR signal intensity Mean” value is given as 1.01. For the same compound, under setting [1], the ESR signal intensity is 0.79. Under setting [2], the ESR signal intensity is 1.13. Under setting [3], the ESR signal intensity is given as 1.11.
On to `CC1=C(/C=C/C(C)=C/C=C/C(C)=C/C=C/C=C(C)/C=C/C=C(C)/C=C/C2=C(C)C(=O)[C@@H](O)CC2(C)C)C(C)(C)C[C@H](O)C1=O` [Astaxanthin, astaxanthin, reference compound], for which the “ESR signal intensity Mean” value came to 2.35. Moreover, the ESR signal intensity under setting [1] is on record as 2.00. Moreover, the ESR signal intensity under setting [2] was 2.33. For the same compound, under setting [3], the ESR signal intensity is listed as 2.72.
With `CC1=C(/C=C/C(C)=C/C=C/C(C)=C/C=C/C=C(C)/C=C/C=C(C)/C=C/C2=C(C)C(=O)[C@@H](O)CC2(C)C)C(C)(C)C[C@H](O)C1` [Adonixanthin, adonixanthin], the “singlet oxygen quenching activity compared with astaxanthin” value is “significantly higher than that of astaxanthin” and the “ESR signal intensity Mean” value was 0.81. The ESR signal intensity under setting [1] amounted to 0.74. In addition, the ESR signal intensity under setting [2] is 0.97. Further, the ESR signal intensity under setting [3] is 0.72.
